Laboratory results as given in patent US20040180959A1, “Gabapentin analogues for fibromy algia and concomitant disorders” (priority 2002, published 2004).

Assays:
Type in all cases: in vivo
mice = assay: Inverted Screen Test to assess coordination; conditions: immediately following the TST
Protocol: Immediately following the TST, mice were also tested in the Inverted Screen Test to assess coordination. Animals were given a 1-minute trial in which they had to climb to the top of the inverted screen or to simply hang on and not fall off.

Wistar rats = assay: Water-lick (Vogel) Conflict Test in rats; conditions: for Percent of Animals Tested With >20 Shock Episodes / Mean Shock Episodes (1 mA): pretreatment 120 minutes; for Mean Shock Episodes (1 mA): Mean ± SEM
Protocol: In each experiment, naive adult male Wistar rats between 170 to 200 g were randomly divided into groups (N=10-30/group) and deprived of water for 48 hours prior to testing. Food was available on Day 1 and removed 24 hours prior to test Day 2.
Apparatus: The modular operant test cage (Coulbourn Instruments) measures 10.25×12×12 in. The test chambers feature 3 modular bays on each side of the cage for a total of 6 bays. A module optical lickometer is mounted on one side of the chamber 5 cm above the grid floor. The lickometer is used to measure licking-drinking from a water bottle mounted outside the test chamber. A photo beam is piped via glass rods to the tip of the drink tube across a gap at the end of the tube. The animals tongue breaks the beam on each lick. The front and back of the test chamber is made of clear Plexiglas. The front door is covered to reduce distractions from inside the test room. The back of the test chamber is facing a wall, away from the flow of traffic within the testing room and remains uncovered to provide the opportunity for observations during testing. Shocks are delivered using a (Coulbourn) programmable universal shocker calibrated to deliver a 1 mA shock for 1 second through the drink tube.
Procedure: On Day 1, after a 24-hour water deprivation, experimental subjects were placed into the test chambers and allowed to drink unpunished. Drinking was limited to 500 responses or approximately 5 mL of water during a 10 minute session. Immediately following the unpunished drinking session, rats were returned to their home cages, deprived of water for an additional 24 hours and was food deprived. […] After the pretreatment period rats were placed into a test chamber and allowed to drink for 10 minutes. After every 10 licks, rats received a 1-second shock (1 mA) through the drink tube. Thus, a conflict or anxiety-producing situation exists. Rats are motivated to drink; however, they are inhibited by the shock. Anxiety is reflected by the low amounts of drinking. Standard anxiolytic drugs produce effects that allow rats to overcome this behavioral inhibition and drink despite the shock.
All data were analyzed using a Kruskal-Wallis one Way Analysis of Variance on Ranks and Mann-Whitney Rank Sum Tests.
Quantitative Analysis: A quantitative analysis represents the percentage of subjects within a treatment group that receives >20 shock episodes during a test session. This number provides a quantitative comparison regarding the distribution of the responses.
(§1) Compound A was dissolved in water and tested orally as a solution from 0.3 to 100 mg/kg in rats and 3 to 300 mg/kg in mice. Dosages are expressed as the active moiety and were administered in a volume of 1 mL/kg for rats and 10 mL/kg for mice.

CD-1 mice = assay: Tail Suspension Test (TST) in mice; conditions: 2 hours after treatment
Protocol: The anxiolytic and antidepressant activity of (3S, 4S)-(1-Aminomethyl-3,4-dimethyl-cyclopentyl)-acetic acid (“Compound A”) was assessed using the Tail Suspension Test (TST) in mice, and in the Water-lick (Vogel) Conflict Test (WLC) in rats. The Vogel test is a recognized test procedure for assessing the potential anxiolytic utility. The TST procedure is a behavior despair paradigm used to assess potential antidepressant activity.
The method consisted of suspending mice by a piece of cellophane tape attached to the distal end of the tail for 6 minutes. Animals (CD-1 mice, weighing 22 to 27 g, from Charles River Labs) were tested. The test apparatus was the TST-2™ (ITEM-Labo, Le Kremmlin-Bicetre Cedex, France). Data were analyzed with analysis of variance (ANOVA) and Tukey's Multiple Range Test or Student's t-test.
as §1
The profile of typical […] activity in the TST consists of […]. Compound A and pregabalin were tested concurrently (PO) 2 hours after treatment. Compound A was administered at doses ranging from 3 to 100 mg/kg and pregabalin was tested from 3-300 mg/kg and served as positive control (Table 1). Compound A dose dependently increases immobility with the MED observed at the 3 mg/kg dosage and maximal effects were seen following the 30 mg/kg dose.

[1] = dose 3× the Vogel MED (30 mg/kg)

CC(C)C[C@H](CN)CC(=O)O [Pregabalin, pregabalin, reference compound]
Screen fall-off, animals of animals tested (mice; 100 mg/kg PO): 1 of 10
Screen fall-off, animals of animals tested (mice; 300 mg/kg PO): 1 of 10
Percent of Animals Tested With >20 Shock Episodes (Wistar rats; 0.3 mg/kg PO): 0%
Mean Shock Episodes (1 mA) (Wistar rats; 0.3 mg/kg PO): 5.1 ± 1.0
Percent of Animals Tested With >20 Shock Episodes (Wistar rats; 1 mg/kg PO): 20%
Mean Shock Episodes (1 mA) (Wistar rats; 1 mg/kg PO): 15.0 ± 6.3
Percent of Animals Tested With >20 Shock Episodes (Wistar rats; 3 mg/kg PO): 20%
Mean Shock Episodes (1 mA) (Wistar rats; 3 mg/kg PO): 10.2 ± 1.6
Percent of Animals Tested With >20 Shock Episodes (Wistar rats; 10 mg/kg PO): 20%
Mean Shock Episodes (1 mA) (Wistar rats; 10 mg/kg PO): 14.7 ± 4.0
Shock episodes (time-course) (Wistar rats; 10 mg/kg, 1 hr post treatment): 65.8 ± 10.8
Shock episodes (time-course) (Wistar rats; 10 mg/kg, 2 hr post treatment): 73.3 ± 13.7
Shock episodes (time-course) (Wistar rats; 10 mg/kg, 4 hr post treatment): 75.1 ± 13.7
Shock episodes (time-course) (Wistar rats; 10 mg/kg, 6 hr post treatment): 54.9 ± 14.7
Shock episodes (time-course) (Wistar rats; 10 mg/kg, 8 hr post treatment): 41.9 ± 13.5
Percent of Animals Tested With >20 Shock Episodes (Wistar rats; 30 mg/kg PO): 50%
Mean Shock Episodes (1 mA) (Wistar rats; 30 mg/kg PO): 51.0 ± 19.1
Shock episodes (time-course) (Wistar rats; 30 mg/kg, 30 min. post treatment): 27.7 ± 8.2
Shock episodes (time-course) (Wistar rats; 30 mg/kg, 1 hr post treatment): 66.5 ± 10
Shock episodes (time-course) (Wistar rats; 30 mg/kg, 2 hr post treatment): 59.8 ± 9.8
Shock episodes (time-course) (Wistar rats; 30 mg/kg, 4 hr post treatment): 100.3 ± 12
Shock episodes (time-course) (Wistar rats; 30 mg/kg, 6 hr post treatment): 39.5 ± 9
Shock episodes (time-course) (Wistar rats; 30 mg/kg, 8 hr post treatment): 30.4 ± 9.1
Percent of Animals Tested With >20 Shock Episodes (Wistar rats; 100 mg/kg PO): 50%
Mean Shock Episodes (1 mA) (Wistar rats; 100 mg/kg PO): 40.7 ± 11.1
Time of maximal effects after treatment (Wistar rats; MED dose 10 mg/kg): 2 to 4 h
Activity maintained through (Wistar rats; [1]): 8 h
Onset of activity after treatment (Wistar rats; [1]): 1 h
Time of peak activity post treatment (Wistar rats; [1]): 6 h
MED for anti-conflict activity (Wistar rats; oral, 2 hour pretreatment, rats): 10 mg/kg
Immobility, % Percent of control (CD-1 mice; 3 mg/kg PO): 102.9 ± 9.5%
Power of Movement, % Percent of control (CD-1 mice; 3 mg/kg PO): 99.1 ± 22.9%
Immobility, % Percent of control (CD-1 mice; 10 mg/kg PO): 134.5 ± 9.9 %
Power of Movement, % Percent of control (CD-1 mice; 10 mg/kg PO): 89.6 ± 18.7%
Immobility, % Percent of control (CD-1 mice; 30 mg/kg PO): 136.9 ± 7.1 %
Power of Movement, % Percent of control (CD-1 mice; 30 mg/kg PO): 96.4 ± 22.7%
Immobility, % Percent of control (CD-1 mice; 100 mg/kg PO): 152.7 ± 6.6 %
Power of Movement, % Percent of control (CD-1 mice; 100 mg/kg PO): 73.4 ± 12.5%
Immobility, % Percent of control (CD-1 mice; 300 mg/kg PO): 160.5 ± 7.4 %
Power of Movement, % Percent of control (CD-1 mice; 300 mg/kg PO): 76.6 ± 12.2%
